Experimental data as given in PubChem BioAssay AID192 (DTP/NCI, 2004).
Values joined by “and” are separate entries in the source; they are usually repeats but may differ in a detail not shown here. Equal entries are not always repeated. Inconclusive results and toxic doses are left out. The calls were made as follows: active = survival T/C of 150% or more; inactive = T/C below 125% in these data.

Test system: BDF1 mice, B16 melanoma ip, median survival T/C
Assay: NCI In Vivo Anticancer Drug Screen. Data for tumor model B16 Melanoma (intraperitoneal) in B6D2F1 (BDF1) mice
Conditions: endpoint: median survival time, higher = longer survival
Procedure, shortened: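 Values are ratios of treated (T) to vehicle-control (C) measurements of survival or tumor size in tumor-bearing mice.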

[1] = dose: 100.0 mg/kg/injection, schedule: Q01DX009 (ip), vehicle: Klucel (hydroxypropylcellulose) (HPC)
[2] = dose: 200.0 mg/kg/injection, schedule: Q01DX009 (ip), vehicle: Klucel (hydroxypropylcellulose) (HPC)
[3] = dose: 6.25 mg/kg/injection, schedule: Q01DX009 (ip), vehicle: saline
[4] = dose: 12.5 mg/kg/injection, schedule: Q01DX009 (ip), vehicle: saline
[5] = dose: 50.0 mg/kg/injection, schedule: Q01DX009 (ip), vehicle: saline
[6] = dose: 50.0 mg/kg/injection, schedule: Q01DX009 (ip), vehicle: saline with Tween-80
[7] = dose: 100.0 mg/kg/injection, schedule: Q01DX009 (ip), vehicle: saline with Tween-80
[8] = dose: 200.0 mg/kg/injection, schedule: Q01DX009 (ip), vehicle: saline with Tween-80
[9] = dose: 12.5 mg/kg/injection, schedule: Q01DX009 (ip), vehicle: saline with Tween-80
[10] = dose: 25.0 mg/kg/injection, schedule: Q01DX009 (ip), vehicle: saline with Tween-80
[11] = dose: 100.0 mg/kg/injection, schedule: Q01DX009 (ip), vehicle: saline
[12] = dose: 200.0 mg/kg/injection, schedule: Q01DX009 (ip), vehicle: saline
[13] = dose: 400.0 mg/kg/injection, schedule: Q01DX009 (ip), vehicle: saline
[14] = dose: 100.0 mg/kg/injection, schedule: Q04DX003 (ip), vehicle: Klucel (hydroxypropylcellulose) (HPC)
[15] = dose: 200.0 mg/kg/injection, schedule: Q04DX003 (ip), vehicle: Klucel (hydroxypropylcellulose) (HPC)

Measured: T/C

NC1=NC(=S)C2N=C(N=Nc3ccc(C(=O)NC(CCC(=O)O)C(=O)O)cc3)N=C2N1 (stereo not given)
inactive: dose: 0.09 mg/kg/injection, schedule: Q01DX009 (ip), vehicle: Klucel (hydroxypropylcellulose) (HPC) 100 % of control | dose: 0.19 mg/kg/injection, schedule: Q01DX009 (ip), vehicle: Klucel (hydroxypropylcellulose) (HPC) 107 % of control | dose: 0.39 mg/kg/injection, schedule: Q01DX009 (ip), vehicle: Klucel (hydroxypropylcellulose) (HPC) 111 % of control | dose: 0.78 mg/kg/injection, schedule: Q01DX009 (ip), vehicle: Klucel (hydroxypropylcellulose) (HPC) 107 % of control | dose: 1.56 mg/kg/injection, schedule: Q01DX009 (ip), vehicle: Klucel (hydroxypropylcellulose) (HPC) 89 % of control

O=C(Nc1ccccc1)Oc1ccc(Cl)cc1
inactive: [1] 93 % of control | [2] 94 % of control | dose: 400.0 mg/kg/injection, schedule: Q01DX009 (ip), vehicle: Klucel (hydroxypropylcellulose) (HPC) 99 % of control

CN(C)C(=O)c1cccc(COc2ccc(N3C(N)=NC(N)=NC3(C)C)cc2Cl)c1
inactive: dose: 1.56 mg/kg/injection, schedule: Q01DX009 (ip), vehicle: saline 120 % of control | dose: 3.13 mg/kg/injection, schedule: Q01DX009 (ip), vehicle: saline 120 % of control | [3] 117 % of control | [4] 104 % of control and 105 % of control | dose: 25.0 mg/kg/injection, schedule: Q01DX009 (ip), vehicle: saline 104 % of control and 117 % of control | [5] 100 % of control

COc1ccc(C(C)=O)cc1[N+](=O)[O-]
inactive: [6] 97 % of control | [7] 102 % of control | [8] 105 % of control

COP12(OCCO1)SC(C(F)(F)F)=C(C(F)(F)F)S2
inactive: [9] 100 % of control | [10] 104 % of control

CO[C@H](C)[C@@](O)(C(=O)OCC1=CCN2CCC[C@@H]12)C(C)C
inactive: dose: 10.0 mg/kg/injection, schedule: Q01DX009 (ip), vehicle: saline 114 % of control | dose: 20.0 mg/kg/injection, schedule: Q01DX009 (ip), vehicle: saline 104 % of control | dose: 40.0 mg/kg/injection, schedule: Q01DX009 (ip), vehicle: saline 100 % of control | dose: 80.0 mg/kg/injection, schedule: Q01DX009 (ip), vehicle: saline 95 % of control

CC(C)NC(=O)N(c1ccccc1)C(C)C
inactive: dose: 50.0 mg/kg/injection, schedule: Q01DX009 (ip), vehicle: Klucel (hydroxypropylcellulose) (HPC) 105 % of control | [1] 103 % of control

CC(C)CC(NC(=O)OC(C)(C)C)C(=O)ON1C(=O)CCC1=O (stereo not given)
inactive: dose: 6.25 mg/kg/injection, schedule: Q01DX009 (ip), vehicle: saline with Tween-80 93 % of control | [9] 93 % of control | [10] 96 % of control | [6] 90 % of control and 92 % of control

CCCCC1(CC)COC(C)(c2ccccc2)OC1 (stereo not given)
inactive: dose: 75.0 mg/kg/injection, schedule: Q01DX009 (ip), vehicle: saline with Tween-80 108 % of control | dose: 150.0 mg/kg/injection, schedule: Q01DX009 (ip), vehicle: saline with Tween-80 106 % of control | dose: 300.0 mg/kg/injection, schedule: Q01DX009 (ip), vehicle: saline with Tween-80 98 % of control

CCOP(=O)(CCCCN1C(=O)c2ccccc2C1=O)OCC
inactive: [11] 104 % of control | [12] 96 % of control | [13] 103 % of control

Cc1ccc(C)c(NC(=O)Nc2cccc3ccccc23)c1
inactive: dose: 9.0 mg/kg/injection, schedule: Q01DX009 (ip), vehicle: gum acacia 108 % of control | dose: 18.0 mg/kg/injection, schedule: Q01DX009 (ip), vehicle: gum acacia 98 % of control | dose: 37.0 mg/kg/injection, schedule: Q01DX009 (ip), vehicle: gum acacia 91 % of control

O=C(NC(CO)C(=O)OCc1ccccc1)OCc1ccccc1 (stereo not given)
inactive: [7] 111 % of control | [8] 113 % of control | dose: 400.0 mg/kg/injection, schedule: Q01DX009 (ip), vehicle: saline with Tween-80 105 % of control

CN(C)c1ccc(-c2cc[n+](C)cc2)cc1
inactive: dose: 0.5 mg/kg/injection, schedule: Q01DX009 (ip), vehicle: saline 109 % of control | dose: 1.0 mg/kg/injection, schedule: Q01DX009 (ip), vehicle: saline 103 % of control | dose: 2.0 mg/kg/injection, schedule: Q01DX009 (ip), vehicle: saline 101 % of control | dose: 3.0 mg/kg/injection, schedule: Q01DX009 (ip), vehicle: saline 104 % of control | dose: 6.0 mg/kg/injection, schedule: Q01DX009 (ip), vehicle: saline 92 % of control

CN(C)CC(Cl)CCl (stereo not given)
inactive: [5] 98 % of control | [11] 102 % of control | [12] 105 % of control | [13] 108 % of control

c1ccc([I+]c2ccccc2)cc1
inactive: dose: 1.0 mg/kg/injection, schedule: Q01DX009 (ip), vehicle: saline + Tween-80 + alcohol 103 % of control | dose: 2.0 mg/kg/injection, schedule: Q01DX009 (ip), vehicle: saline + Tween-80 + alcohol 97 % of control | dose: 4.0 mg/kg/injection, schedule: Q01DX009 (ip), vehicle: saline + Tween-80 + alcohol 108 % of control | dose: 6.0 mg/kg/injection, schedule: Q01DX009 (sc), vehicle: olive oil, sesame oil, peanut oil 100 % of control

CCN(CC)CCOCCO
inactive: dose: 25.0 mg/kg/injection, schedule: Q01DX009 (ip), vehicle: suspension in saline 107 % of control | dose: 50.0 mg/kg/injection, schedule: Q01DX009 (ip), vehicle: suspension in saline 95 % of control | dose: 100.0 mg/kg/injection, schedule: Q01DX009 (ip), vehicle: suspension in saline 105 % of control | dose: 200.0 mg/kg/injection, schedule: Q01DX009 (ip), vehicle: suspension in saline 96 % of control

CCc1occ(C(=O)OC)c1C(=O)OC
inactive: dose: 100.0 mg/kg/injection, schedule: Q04DX003 (ip), vehicle: saline with Tween-80 102 % of control | dose: 200.0 mg/kg/injection, schedule: Q04DX003 (ip), vehicle: saline with Tween-80 97 % of control | dose: 400.0 mg/kg/injection, schedule: Q04DX003 (ip), vehicle: saline with Tween-80 95 % of control

CCOC(=O)N1C(=O)c2ccccc2C1=O
inactive: [10] 94 % of control | [6] 94 % of control | [7] 86 % of control

CN(C)CCOC(c1ccccc1)c1ccccc1
inactive: dose: 3.12 mg/kg/injection, schedule: Q01DX009 (ip), vehicle: saline 86 % of control | [3] 100 % of control | [4] 100 % of control

O=[N+]([O-])c1cccc2ncccc12
inactive: dose: 50.0 mg/kg/injection, schedule: Q04DX003 (ip), vehicle: Klucel (hydroxypropylcellulose) (HPC) 100 % of control | [14] 97 % of control | [15] 91 % of control

CC/C(=C\c1cccc([N+](=O)[O-])c1)C(=O)O
inactive: [14] 94 % of control | [15] 94 % of control | dose: 400.0 mg/kg/injection, schedule: Q04DX003 (ip), vehicle: Klucel (hydroxypropylcellulose) (HPC) 91 % of control

Cc1ccc(C)c(NC(=O)Nc2cccc(Cl)c2)c1
inactive: [1] 102 % of control | [2] 100 % of control
